These results are taken from patent US20020028804A1, “Cosmetic compositions containing substituted iminodibenzyl or fluorene derivatives” (Unilever Home & Personal Care USA, Division of Conopco, Inc., priority 2000, published 2002).

This assay relates to human sebocytes. As to the kind of experiment: Sebum suppression: 14C-acetate incorporation in cultured human sebocytes. The class given is cell-based. Conditions: for activity at 1 µM / activity at 10 µM / activity at 100 µM / activity at 0.1 µM: Homo sapiens. On the procedure: Compounds A through H were tested for their potential to suppress sebum expression, alone or in the presence of a retinoid.
Secondary cultures of human sebocytes obtained from an adult […] were grown in 48-well tissue culture plates (Costar Corp.; Cambridge, Mass.) or 96-well tissue culture plates (Packard Co.; Meriden, Conn.) until confluent. Sebocyte growth medium consisted of Clonetics Keratinocyte Basal Medium (KBM) supplemented with 14 μg/ml bovine pituitary extract, 0.4 μg/ml hydrocortisone, 5 μg/ml insulin, 10 ng/ml epidermal growth factor, 1.2×10−10 M cholera toxin, 100 units/ml penicillin, and 100 μg/ml streptomycin. All cultures were incubated at 37° C. in the presence of 7.5% CO2. Medium was changed three times per week.
On the day of experimentation, the growth medium was removed and the sebocytes washed three times with sterile Dulbecco's Modified Eagle Medium (DMEM; phenol red free). Fresh DMEM was added to each sample (duplicates, triplicates, or quadruplicates depending on the experiment) with 5 microliter of test agent solubilized in ethanol either alone or in the presence of one or 10 micromolar of retinol. Controls consisted of addition of ethanol alone, retinol alone, or phenol red, which has estrogen-like activity and is included as a positive control.
Each plate was returned to the incubator for 20 hours followed by the addition of 14C-acetate buffer (5 mM final concentration, 56 mCi/mmol specific activity). Sebocytes were returned to the incubator for four hours after which each culture was rinsed three times with phosphate buffered saline to remove unbound label. Radioactive label remaining in the sebocytes was harvested and counted using a Beckman scintillation counter.

The mark [1] stands for this setting: 1 μM test compound + 1 μM Retinol, read-out: % of Control.
Setting [2] is: 1 μM test compound + 10 μM Retinol, read-out: % of Control.
[3] abbreviates: 1 μM test compound alone, read-out: % of Control.
The mark [4] stands for this setting: 10 μM test compound alone, read-out: % of Control.
Where [5] appears, read: 100 μM test compound + 1 μM Retinol, read-out: % of Control.
[6] abbreviates: 100 μM test compound + 10 μM Retinol, read-out: % of Control.
Setting [7] is: 100 μM test compound alone, read-out: % of Control.
The mark [8] stands for this setting: 1 μM test compound + 10 μM Retinol.
[9] abbreviates: 0.1 μM test compound + 1 μM Retinol, read-out: % of Control.
The mark [10] stands for this setting: 0.1 μM test compound + 10 μM Retinol, read-out: % of Control.
Setting [11] is: 0.1 μM test compound alone, 14C-acetate label remaining in sebocytes, 20 h + 4 h, read-out: % of Control.
The mark [12] stands for this setting: 10 μM test compound + 1 μM Retinol, read-out: % of Control.
Setting [13] is: 10 μM test compound + 10 μM Retinol, read-out: % of Control.
Setting [14] is: 10 μM test compound + 10 μM Retinol.

Several values for one entry are separate records, joined by “and”; a condition that tells them apart may be missing. Equal entries are not always repeated. Where two headings read alike, the source gives them in different places.

With `CC(O)c1cccc(NC(=O)N2c3ccccc3CCc3ccccc32)c1` (stereo not shown) [Compound A], the activity at 1 µM by setting is: under setting [1], 82.8%; under setting [2], 93.2%; under setting [3], 85.7%. For the same compound, the activity at 10 µM under setting [4] was 91.3%. The activity at 100 µM came to 1% under setting [5], 0.6% under setting [6] and 2.1% under setting [7].
For the compound `O=C(Nc1ccc(OC(F)(F)F)cc1)N1c2ccccc2CCc2ccccc21` [Compound B], the activity at 1 µM under setting [1] is 104%, the activity at 1 µM under setting [2] came to 65.7% and the activity at 1 µM under setting [3] came out at 94.1%. For the same compound, the activity at 10 µM under setting [4] worked out at 89.4%. In addition, the activity at 100 µM by setting is: under setting [5], 0.8%; under setting [6], 0.6%; under setting [7], 1.7%.
On to `O=C(Nc1ccc(O)cc1)N1c2ccccc2CCc2ccccc21` [Compound C], for which the “% of Control” value is, setting by setting: under setting [8], 48.5%; (1 μM test compound alone, 1 µM) 66.4%. Also, the activity at 0.1 µM runs as follows: under setting [9], 95.1%; under setting [10], 84.6%; under setting [11], 103%. Also, the activity at 10 µM reads like this: under setting [12], 37.4%; under setting [4], 56.1%. Moreover, where the note is “in the presence of retinol / a retinoid, versus compound alone”, the “sebum suppressive activity when combined with retinol” value is “improved activity”.
As to `CC1=C(Cl)CCC=C1NC(=O)N1c2ccccc2CCc2ccccc21` [Compound D], the “% of Control” value (1 μM test compound + 1 μM Retinol) turned out to be 96.9%. Moreover, the activity at 1 µM under setting [2] turned out to be 74.6% and the activity at 1 µM under setting [3] was 77.6%. For the same compound, the activity at 10 µM turned out to be 97.1% under setting [12], 76.8% under setting [13] and 82.7% under setting [4]. Besides, the activity at 100 µM under setting [5] turned out to be 1.1%, the activity at 100 µM under setting [6] came out at 0.5% and the activity at 100 µM under setting [7] is 1.8%.
As to `O=C(CC1c2ccccc2-c2ccccc21)N1CCC(O)(c2ccc(Cl)cc2)CC1` [Compound F], the “% of Control” value is, setting by setting: (1 μM test compound alone, 1 µM) 90.2%; under setting [14], 27.0%. Besides, the activity at 0.1 µM came to 92.8% under setting [9], 83.6% under setting [10] and 95.8% under setting [11]. The activity at 1 µM under setting [3] came to 72.3%. For the same compound, under setting [13], the activity at 10 µM is 16.7%.
On to `O=C(CC1c2ccccc2-c2ccccc21)N1CCC(O)(c2ccccc2)CC1` [Compound G], for which the “% of Control” value (1 μM test compound alone, 1 µM) was determined as 70.7%. Moreover, the activity at 10 µM under setting [4] worked out at 67.7%. The activity at 100 µM stood at 0.6% under setting [6] and 2% under setting [7].
Turning to `CCCN(CCO)C(=O)CC1c2ccccc2-c2ccccc21` [Compound H], the “% of Control” value runs as follows: under setting [8], 72.8% and 99.9%; (1 μM test compound alone, 1 µM) 74.8% and 102.7%; under setting [14], 80.2% and 100.4%; (10 μM test compound alone, 10 µM) 74.6% and 111.7%; (100 μM test compound + 10 μM Retinol) 44.4%; (100 μM test compound alone, 100 µM) 73.6%. In addition, the activity at 1 µM under setting [1] amounted to 86.4%. Moreover, under setting [12], the activity at 10 µM was 76.6%. Further, the activity at 100 µM is, setting by setting: under setting [5], 67.6%; under setting [6], 27.2%; under setting [7], 79.8%.
As to `O=S1(=O)OC(c2ccc(O)cc2)(c2ccc(O)cc2)c2ccccc21` [Phenol Red, phenol red, reference compound], the “% of Control” value reads like this: (28 μM Phenol Red (positive control)) 95.3% and 74.7%; (280 μM Phenol Red (positive control)) 15.9%.
As to `CC1=C(/C=C/C(C)=C/C=C/C(C)=C/CO)C(C)(C)CCC1` [Retinol, retinol, reference compound], under “1 μM Retinol alone (control)”, the “% of Control” value came out at 98.1% and the activity at 1 µM was 96.5%. Under “10 μM Retinol alone (control)”, the “% of Control” value was 105.8%.
